{"source": "patent US6488164B2", "about": "“Compositions including modafinil for treatment of attention deficit hyperactivity disorder and multiple sclerosis fatigue” (Cephalon, Inc., priority 1999, dated 2002)", "key": {"MS fatigue": {"system": "MS fatigue", "details": "cited from earlier work"}, "[1]": {"system": "TMN of the posterior hypothalamus", "details": "cats, wake-promoting dose; cited from earlier work"}, "[2]": {"system": "Fos-IR neurons in cingulate cortex, TMN, VTA", "assay": "Fos immunohistochemistry cell counts in rat brain, modafinil given at midnight (Example 1)", "type": "in vivo", "details": "rats", "experimental": "(§1) Experimental Design: In the following examples, rats were sacrificed two hours following treatment, and the brains were analyzed using immunohistochemistry for Fos. In Examples 1 and 2, rats were instrumented for electroencephalogram (EEG) and electromyogram (EMG) recordings. To avoid the stress of handling during administration of modafinil or vehicle, chronic catheters were placed in the peritoneal cavity for administration of modafinil or vehicle.\n(§2) Animals and Recording Environment: 65, male, Sprague-Dawley rats (Harlan) weighing 270-330 g were housed individually in a pathogen-free barrier facility in a room maintained at 21.5-22.5° C. with lights on at 7 AM and off at 7 PM. Rats had food and water available ad lib. At least 3 days before each experiment, rats were placed into a light-tight, sound-attenuated recording chamber (Biocube) in an isolated room. Light intensity was 100-150 lux at midlevel inside each cage. The Institutional Animal Care and Use Committees of Beth Israel Deaconess Medical Center and Harvard Medical School approved all procedures.\n(§3) Animal Surgery: Under chloral hydrate anesthesia (350 mg/kg ip), the rats of Examples 1 and 2 were surgically implanted with four EEG screws (AP: +3, −4; RL: +2,−2 from bregma) lightly contacting the dura and two EMG wires (Plastics One, Roanoke, Va.) below the nuchal muscles. The leads were connected to a six channel connector (Plastics One) which was affixed to the skull with dental acrylic. A telemetric temperature transmitter (TA10TA-F40, Data Sciences International, St. Paul, Minn.) was placed in the peritoneal cavity of all but 5 rats. To administer drugs without handling the rats, an 80 cm silastic catheter (1 mm I.D., Baxter Scientific Products) was inserted into the peritoneal cavity, subcutaneously tunneled to the scalp, cemented in place with dental acrylic, and protected externally by a spring. This intraperitoneal catheter was filled with heparinized, pyrogen-free saline and flushed weekly and 3 days prior to the experiment. Animals recovered at least 14 days and then acclimated to recording cables for three days prior to the start of physiological recordings.\n(§4) Drug Administration: Modafinil (lot #PA 008; Cephalon, Inc., West Chester, Pa.) was suspended in a solution of 0.25% methylcellulose (pH=7.4, Dow Chemical Inc., Midland, Mich.) in 0.9% pyrogen-free saline. The drug was administered in a volume of 2.0 ml/kg at doses of 150 mg/kg. Control animals received an equal volume of methylcellulose vehicle. Catheters were then flushed with 1 ml 0.9% saline to assure delivery of drug into the peritoneal cavity. A red flashlight was used to aid injections performed in the dark.\n(§5) Histology and Immunohistochemistry: Two hours following drug injections, animals were deeply anesthetized with chloral hydrate (600 mg/kg ip) and transcardially perfused with 100 ml 0.9% saline followed by 500 ml of phosphate buffered 10% formalin, pH 7.0 (Sigma). Brains were removed, postfixed for 4 hours in formalin, and then allowed to equilibrate in 20% sucrose in 0.1 M phosphate buffered saline (PBS), with 0.02% sodium azide (Sigma) at 4° C. Brains were sectioned (1:5 series, 30 μm) on a freezing microtome and stored in PBS-azide at 4° C. One series from each brain was stained for Fos using previously described methods (Elmquist et al., 1996). […]"}, "wakefulness [3]": {"system": "wakefulness", "details": "cited from earlier work"}, "wakefulness [4]": {"system": "wakefulness", "details": "rats, cats, canines, non-human primates; also sleep apnea and narcolepsy models; cited from earlier work"}, "TMN": {"system": "TMN", "details": "rats, wake-promoting doses; cited from earlier work"}, "[5]": {"system": "Fos-IR neurons in VLPO, TMN, cortex", "assay": "Fos immunohistochemistry cell counts in rat brain, modafinil given at noon (Example 2)", "type": "in vivo", "experimental": "as §1, §2, §3, §4, §5"}, "[6]": {"details": "modafinil 150 mg/kg ip at midnight, 2 h after treatment, mean ± standard error, n=6"}, "[7]": {"details": "rats on normal LD cycle, 150 mg/kg at noon"}, "[8]": {"details": "rats, modafinil 150 mg/kg ip at noon, 2 h after treatment, n=7"}}}
{"smiles": "NC12CC3CC(CC(C3)C1)C2", "note": "[Amantadine, amantadine]", "values": [{"measurement": "Patients with benefit in MS fatigue", "setting": "MS fatigue; double blind, randomized study", "result": 79, "unit": "%"}]}
{"smiles": "NC(=O)C[S+]([O-])C(c1ccccc1)c1ccccc1", "note": "(stereo not drawn) [Modafinil, modafinil]", "values": [{"measurement": "Activation of the TMN of the posterior hypothalamus (in words)", "setting": "[1]", "result": "failed to cause activation of the TMN"}, {"measurement": "Fos-IR neurons in TMN relative to controls", "setting": "[2]; 150 mg/kg at midnight", "result": "four times as many"}, {"measurement": "Fos immunoreactivity in the cortex versus controls", "setting": "[2]; 150 mg/kg at midnight, more pronounced in cingulate and pyriform cortex", "result": "more Fos immunoreactivity in the cortex than the controls"}, {"measurement": "Fos-IR cell count, TMN", "setting": "[2]; [6]", "result": "46 ± 4"}, {"measurement": "Fos-IR cell count, VTA", "setting": "[2]; [6]", "result": "12 ± 3"}, {"measurement": "Fos-IR cell count, cingulate cortex", "setting": "[2]; [6]", "result": "191 ± 38"}, {"measurement": "Tolerability in clinical trials", "setting": "wakefulness [3]; 400 mg/day, humans", "result": "well tolerated"}, {"measurement": "Optimum wakefulness promoting dose", "setting": "wakefulness [3]; adult humans", "result": 200, "unit": "mg/day"}, {"measurement": "Lower threshold of wake-promoting doses", "setting": "wakefulness [3]; human oral, known in the art", "result": "about 100 mg/day"}, {"measurement": "Wakefulness (in words)", "setting": "wakefulness [4]", "result": "promotes wakefulness"}, {"measurement": "Association of modafinil-induced wakefulness with activation of the TMN (in words)", "setting": "TMN", "result": "not associated with activation of the TMN"}, {"measurement": "Number of Fos-IR neurons in the TMN (in words)", "setting": "[5]; [7]", "result": "markedly increased"}, {"measurement": "Number of Fos-IR neurons in the VLPO (in words)", "setting": "[5]; [7]", "result": "decreases"}, {"measurement": "Expression of Fos in frontal and cingulate cortex (in words)", "setting": "[5]; rats, 150 mg/kg at noon", "result": "increased expression of Fos"}, {"measurement": "Fos-IR cell count, TMN", "setting": "[5]; [8]", "result": "43 ± 5"}, {"measurement": "Fos-IR cell count, VLPO", "setting": "[5]; [8]", "result": "26 ± 3"}]}
{"smiles": "NC1=NC(=O)C(c2ccccc2)O1", "note": "(stereo not drawn) [pemoline]", "values": [{"measurement": "Beneficial effect in MS fatigue (in words)", "setting": "MS fatigue; same study, MS patients", "result": "failed to show a beneficial effect"}]}
